Laboratory results from EP3825318A1, “OXALAMIDO-SUBSTITUTED TRICYCLIC INHIBITORS OF HEPATITIS B VIRUS” (priority 2019, dated 2021).

These molecules were tested on HBV (assay: Anti-HBV activity in vitro: extracellular HBV DNA by qPCR in HepAD38 cells). Settings: Hepatitis B virus, 96 hours incubation, extracellular HBV DNA by direct qPCR, read-out: HBV inh EC50.
Type: cell-based
Excerpt: HepAD38 cell line (Ladner et al., Antimicrob Agents Chemother, 1997, 41, 1715-20) was used for HBV inhibition assays. HepAD38 is a subclone, derived from Hepatoblastoma cell line HepG2 (ATCC® Number: HB-8065™), that expresses HBV genome under the transcriptional control of a tetracycline-responsive promoter in a TET-OFF system: addition of tetracycline (TET) or doxycycline suppresses HBV replication, while its removal switches on the process allowing HBV viral particles release in the cell supernatant. HepAD38 cell line is maintained in DMEM/F12, supplemented with 10% of fetal bovine serum, 1% of glutamine, 1% of penicillin/streptomycin, 0.4 mg/ml G418 and 0,3 ug/ml tetracycline. For the HBV inhibition assay, doxycycline-free medium is used in order to allow virion production.
HBV inhibition activity in vitro was performed in 96 multiwell plates. During the initial (primary) screening, compounds were first tested in triplicates at concentrations of 0.02 µM, 0.1µM, 0.5µM and 1µM. For selected compounds, an 8-point dose-response curve was obtained using 1:2 serial dilutions (starting from 0.01µM, 0.1µM, 0.4µM or 5 µM, depending on the degree of inhibition observed during the primary screening). From the dose-response curves, half maximal effective concentration (EC50) could be calculated (see also below).
In more detail, compounds - typically dissolved in DMSO stock solutions - were diluted to 2x the final desired concentration in 100 µl of the above medium (without doxycycline) and plated in three replicates in the 96-well plates.
Simultaneously, HepAD38 cells - extensively pre-washed in tetracycline-free medium in order to induce HBV production - were suspended at 2^∗10^4 cells in 100 µl of tetracycline-free medium and added to each well of the plate, to yield a final assay volume of 200 µl DMSO - used for stock solutions and compounds dilutions - which was always present in the assays at a final concentration of 0.5%.
Plates were then incubated 96 hours at 37°C and then subjected to cell viability assays and extracellular HBV quantification, in order to evaluate both the cytotoxic potential and the antiviral activity of compounds. Cytotoxicity was assessed by a commercial fluorescence assay that measures the metabolic activity of cells, directly related to cell viability (Cell Titer Blue, Promega). Anti-HBV activity was evaluated by quantification of extracellular HBV DNA with direct qPCR. In particular, supernatant was collected and centrifuged for cell debris clarification, viral DNA was extracted from virions by addition of lysis buffer (1 mM 1,4-dithiothreitol, 0.2% sodium dodecyl sulphate) and incubated at 95°C for 10 min. Samples were then diluted 1:40 and real time PCR amplification was performed with SYBR green assay (Power SYBR™ Green PCR Master Mix-Thermo Fisher Scientific) and specific HBV primer (HBV-DF:5'-[…]-3' (SEQ ID No. 1), HBV-DR:5'-[…]-3' (SEQ ID No. 2)).
Antiviral activity data for each compound are reported as EC50 threshold value (see Table 1 legend). Excel and Graphpad Prism programs are typically used for data elaboration and EC50 calculation.

Row | SMILES | EC50 [nM]
1 | C[C@@H](NC(=O)C(=O)N1C[C@H]2COc3c(cn(C)c3C(=O)Nc3ccc(F)c(C(F)(F)F)c3)S(=O)(=O)N[C@H]2C1)C(F)(F)F [Example E4, (3aR,10aR)-N-(4-fluoro-3-(trifluoromethyl)phenyl)-7-methyl-2-(2-oxo-2-(((R)-1,1,1-trifluoropropan-2-yl)amino)acetyl)-2,3,3a,4,10,10a-hexahydro-1H,7H-dipyrrolo[3,4-b:3',4'-f][1,4,5]oxathiazocine-8-carboxamide 5,5-dioxide] | < 500
2 | C[C@@H](NC(=O)C(=O)N1C[C@H]2COc3c(c(Cl)n(C)c3C(=O)Nc3ccc(F)c(C(F)(F)F)c3)S(=O)(=O)N[C@H]2C1)C(F)(F)F [Example E8, (3aR,10aR)-6-chloro-N-(4-fluoro-3-(trifluoromethyl)phenyl)-7-methyl-2-(2-oxo-2-(((R)-1,1,1-trifluoropropan-2-yl)amino)acetyl)-2,3,3a,4,10,10a-hexahydro-1H,7H-dipyrrolo[3,4-b:3',4'-f][1,4,5]oxathiazocine-8-carboxamide 5,5-dioxide] | < 500
3 | Cc1cc(NC(=O)c2c3c(c(Cl)n2C)S(=O)(=O)N[C@H]2CN(C(=O)C(=O)N[C@H](C)C(F)(F)F)C[C@H]2CO3)ccc1F [Example E9, (3aR,10aR)-6-chloro-N-(4-fluoro-3-methylphenyl)-7-methyl-2-(2-oxo-2-(((R)-1,1,1-trifluoropropan-2-yl)amino)acetyl)-2,3,3a,4,10,10a-hexahydro-1H,7H-dipyrrolo[3,4-b:3',4'-f][1,4,5]oxathiazocine-8-carboxamide 5,5-dioxide] | < 500
4 | C[C@@H](NC(=O)C(=O)N1C[C@H]2COc3c(c(Cl)n(C)c3C(=O)Nc3ccc(F)c(F)c3)S(=O)(=O)N[C@H]2C1)C(F)(F)F [Example E6, (3aR,10aR)-6-chloro-N-(3,4-difluorophenyl)-7-methyl-2-(2-oxo-2-(((R)-1,1,1-trifluoropropan-2-yl)amino)acetyl)-2,3,3a,4,10,10a-hexahydro-1H,7H-dipyrrolo[3,4-b:3',4'-f][1,4,5]oxathiazocine-8-carboxamide 5,5-dioxide] | < 500
5 | C[C@@H](NC(=O)C(=O)N1C[C@H]2COc3c(cn(C)c3C(=O)Nc3ccc(F)c(F)c3)S(=O)(=O)N[C@H]2C1)C(F)(F)F [Example E2, (3aR,10aR)-N-(3,4-difluorophenyl)-7-methyl-2-(2-oxo-2-(((R)-1,1,1-trifluoropropan-2-yl)amino)acetyl)-2,3,3a,4,10,10a-hexahydro-1H,7H-dipyrrolo[3,4-b:3',4'-f][1,4,5]oxathiazocine-8-carboxamide 5,5-dioxide] | < 500
6 | C[C@@H](NC(=O)C(=O)N1C[C@H]2COc3c(c(Cl)n(C)c3C(=O)Nc3ccc(F)c(C(F)F)c3)S(=O)(=O)N[C@H]2C1)C(F)(F)F [Example E7, (3aR,10aR)-6-chloro-N-(3-(difluoromethyl)-4-fluorophenyl)-7-methyl-2-(2-oxo-2-(((R)-1,1,1-trifluoropropan-2-yl)amino)acetyl)-2,3,3a,4,10,10a-hexahydro-1H,7H-dipyrrolo[3,4-b:3',4'-f][1,4,5]oxathiazocine-8-carboxamide 5,5-dioxide] | < 500
7 | C[C@@H](NC(=O)C(=O)N1C[C@H]2COc3c(c(Cl)n(C)c3C(=O)Nc3ccc(F)c(Cl)c3)S(=O)(=O)N[C@H]2C1)C(F)(F)F [Example E5, (3aR,10aR)-6-chloro-N-(3-chloro-4-fluorophenyl)-7-methyl-2-(2-oxo-2-(((R)-1,1,1-trifluoropropan-2-yl)amino)acetyl)-2,3,3a,4,10,10a-hexahydro-1H,7H-dipyrrolo[3,4-b:3',4'-f][1,4,5]oxathiazocine-8-carboxamide 5,5-dioxide] | < 500
8 | C[C@@H](NC(=O)C(=O)N1C[C@H]2COc3c(cn(C)c3C(=O)Nc3ccc(F)c(C(F)F)c3)S(=O)(=O)N[C@H]2C1)C(F)(F)F [Example E3, (3aR,10aR)-N-(3-(difluoromethyl)-4-fluorophenyl)-7-methyl-2-(2-oxo-2-(((R)-1,1,1-trifluoropropan-2-yl)amino)acetyl)-2,3,3a,4,10,10a-hexahydro-1H,7H-dipyrrolo[3,4-b:3',4'-f][1,4,5]oxathiazocine-8-carboxamide 5,5-dioxide] | < 500
9 | C[C@@H](NC(=O)C(=O)N1C[C@H]2COc3c(cn(C)c3C(=O)Nc3ccc(F)c(Cl)c3)S(=O)(=O)N[C@H]2C1)C(F)(F)F [Example E1, (3aR,10aR)-N-(3-chloro-4-fluorophenyl)-7-methyl-2-(2-oxo-2-(((R)-1,1,1-trifluoropropan-2-yl)amino)acetyl)-2,3,3a,4,10,10a-hexahydro-1H,7H-dipyrrolo[3,4-b:3',4'-f][1,4,5]oxathiazocine-8-carboxamide 5,5-dioxide] | < 500
